Reference: patent publication US20210401823A1, “INHIBITORS AND ANTAGONISTS OF GPR84 FOR THE TREATMENT OF ENDOMETRIOSIS” (Bayer Pharma Aktiengesellschaft, priority 2017, published 2021)

Key:
GPR84 [1] = target: T1, GPR84 (Homo sapiens, UniProt Q9NQS5); experiment: GPR84 cAMP release assay, test for agonism (cAMP Hunter CHO-K1 GPR84 Gi cells, TR-FRET); assay type: cell-based; details: 60 min incubation
T1 construct: host or cells: CHO-K1 (cAMP Hunter CHO-K1 GPR84 Gi cells)
Description: For the resuscitation of frozen cells (cAMP Hunter™ CHO-K1 GPR84 Gi cells; DiscoverX; #95-0158C2) one vial is taken out of the liquid nitrogen storage and rapidly thawed in a water bath at 37° C. for some 1 to 3 minutes. Immediately afterwards the cells are transferred carefully by decanting into a 50 ml Falcon Tube containing 15 ml of pre-warmed full cell culture medium (HAM's F12; 10% FCS; no selection markers). Gentle swirling is used to assist their resuspension. In a next step, the cells are harvested straight away via low g centrifugation for 5 minutes (Hereaus Multifuge 4 KR; 400 rpm; rcf=44 g) to avoid over-compacting the cell pellet. Gentle decanting is used to get rid of the medium. Finally assay readiness is achieved by carefully re-suspending the cell pellet in 5 ml of the final assay medium (HAM's F12; 10% FCS; no selection markers). In a last step, cell viability and the actual cell number is determined (Omni Life Science; Casy Cell Counter/Analyzer) prior to correcting the volume for the final cell number to be seeded, i.e. 2500 cells/μl. […]
2 μl's of assay ready frozen cells are directly seeded into the wells of a non-sterile 384-well plate (Greiner; white; #784075; 5000 cells/well). […] Time resolved FRET (TR-FRET) signals are determined 60 minutes later using an appropriate HTRF reader (BMG Labtech: Pherastar). […]

PBMCs = experiment: In vitro assay 2: GPR84 ligand associated IL-1beta and TNFalpha release from PBMCs (ELISA); assay type: cell-based; details: for IL-1beta concentration / TNF alpha concentration: PBMCs stimulated with LPS 100 ng/ml 24 hours, treatment 4 h
Description: PBMCs were isolated by Ficoll-Paque Plus (Biochrom) density gradient centrifugation from whole blood. Briefly, PBMCs were centrifuged at 250 g for 30 sec and resuspended and cultured in RPMI 1640 medium [Gibco, CAT No. 11875093] with 10% heat-inactivated FBS, L-Glutamine (10 g/L), penicillin (100 IU/mL), and streptomycin ([…]) at 37° C. in a 5% CO2 environment. Cells were stimulated with LPS (100 ng/ml, Sigma-Aldrich) for 24 hours and treated with the GPR84 agonist 6-n-octylaminouracil and antagonist CMPD 139 for 4 h. IL-1beta and TNFalpha concentrations were analyzed by ELISA (Mesoscale Discovery, Germany).

[2] = tested on: Human eutopic endometrium tissue biopsies; experiment: Ex vivo assay 1: GPR84 ligand associated endometrial inflammation assay (cytokines in supernatant, Bio-Plex); assay type: cell-based; details: for IL-1beta in supernatant / TNFalpha in supernatant: endometrium slices, 21 hours
Description: Human eutopic endometrium tissue biopsies as surrogate for endometriosis lesion were cut into small slices, washed with HBSS buffer [ThermoFischer, 14175095] and incubated in DMEM/F12 medium [ThermoFischer, 11320-033], supplemented with 5% FCS for 3 hours. […] After 21 hours cytokines in the supernatant were quantified with the Bio-Plex platform according to the supplier's instructions. Data were analyzed using the GraphPad Software (La Jolla, USA). […] These mediators included IL1β and TNFalpha. […] Thus, activation of GPR84 contributes to the inflammation associated with endometriosis and antagonists are able to reduce inflammation

GPR84 [3] = target: T1, GPR84; experiment: GPR84 cAMP release assay, test for antagonism of agonist-induced activation (cAMP Hunter CHO-K1 GPR84 Gi cells, TR-FRET); assay type: cell-based
Description: For the resuscitation of frozen cells (cAMP Hunter™ CHO-K1 GPR84 Gi cells; DiscoverX; #95-0158C2) one vial is taken out of the liquid nitrogen storage and rapidly thawed in a water bath at 37° C. for some 1 to 3 minutes. Immediately afterwards the cells are transferred carefully by decanting into a 50 ml Falcon Tube containing 15 ml of pre-warmed full cell culture medium (HAM's F12; 10% FCS; no selection markers). Gentle swirling is used to assist their resuspension. In a next step, the cells are harvested straight away via low g centrifugation for 5 minutes (Hereaus Multifuge 4 KR; 400 rpm; rcf=44 g) to avoid over-compacting the cell pellet. Gentle decanting is used to get rid of the medium. Finally assay readiness is achieved by carefully re-suspending the cell pellet in 5 ml of the final assay medium (HAM's F12; 10% FCS; no selection markers). In a last step, cell viability and the actual cell number is determined (Omni Life Science; Casy Cell Counter/Analyzer) prior to correcting the volume for the final cell number to be seeded, i.e. 2500 cells/μl. Cell seeding is achieved either with the help of multi-channel pipettes or appropriate bulk reagent dispensers.
In a first step, 1 μl of a 4× antagonist solution in the predefined test range (prepared in assay medium; HAM's F12; 10% FCS; 2 mM Glutamin; no selection markers) is added into the wells of a non-sterile 384-well plate (Greiner; white; #784075; Immediately afterwards 2 μl's of assay ready frozen cells are directly seeded into the plate (5000 cells/well)). […] Time resolved FRET (TR-FRET) signals are determined 60 minutes later using an appropriate HTRF reader (BMG Labtech: Pherastar).
Dose response experiments for GPR84 agonists were carried out using the cAMP Hunter™ CHO-K1 GPR84 Gi cell system (DiscoverX) (PathHunter® CHO-K1 hGPR84 β-Arrestin Cell Line cultured with DMF12 HAM, 9% FBS; 300 ug/ml Hygromycin; 800 ug/ml Geneticin; 2 mM Glut; 1% Pen/Strep) in a 384-well plate format. […] Following a 60-minute incubation cAMP levels were determined by TR-FRET as described above. […]

[4] = tested on: mouse CFA model of inflammation; experiment: CFA pain model, dynamic weight-bearing (DWB); assay type: in vivo; details: preventive, 24 h after CFA, vehicle 42.91 +/− 19.32
Description: The efficacy of CMPD139 in vivo on inflammatory pain was measured in inflamed paws after administration of complete Freunds' adjuvans (CFA) (24 h) in the dynamic weight-bearing (DWB) model. The effects of repeated preventive treatment with CMPD139 on pain following repeated oral and subcutaneous administration (3×) in the mouse CFA model of inflammation were investigated using a preventive setting. The GPR84 antagonist CMPD139 (90 or 30 mg/kg, p.o.+s.c., 3× doses) was administered 2 h before injection of CFA and 6-8 h later at day 0. At 24 h after CFA application, the third dose of CMPD139 was given 2 h before DWB testing. Statistical analysis was performed with one-way analysis of variance, followed by Bonferroni's multiple comparison test against vehicle control groups using the GraphPad PRISM software, *p<0.05.

[5] = 6-n-octylaminouracil (10 μM) alone
[6] = Decanoic Acid (10 μM) + CMPD. 139 (10 μM)
[7] = 6-n-octylaminouracil (10 μM) + CMPD 139 (10 μM)

T1 sequence (Q9NQS5 whole entry): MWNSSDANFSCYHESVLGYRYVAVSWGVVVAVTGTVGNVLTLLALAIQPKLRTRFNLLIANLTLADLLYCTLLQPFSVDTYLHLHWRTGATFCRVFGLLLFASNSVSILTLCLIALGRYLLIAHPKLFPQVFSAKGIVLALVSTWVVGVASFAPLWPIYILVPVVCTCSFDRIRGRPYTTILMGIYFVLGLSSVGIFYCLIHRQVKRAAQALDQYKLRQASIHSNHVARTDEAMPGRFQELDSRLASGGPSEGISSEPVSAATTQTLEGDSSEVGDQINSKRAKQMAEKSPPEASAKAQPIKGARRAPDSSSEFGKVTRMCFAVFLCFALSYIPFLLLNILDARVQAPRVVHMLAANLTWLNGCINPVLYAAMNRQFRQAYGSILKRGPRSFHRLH

## CCCCCCCCC(O)C(=O)O (stereo not shown) [2-OH-decanoic acid, 2-Hydroxydecanoic acid]
GPR84 [1]
  EC50: 24000 nM

## CCCCCCCCNc1cc(=O)[nH]c(=O)[nH]1 [6-n-octylaminouracil, reference compound]
PBMCs; [5]
  IL-1beta concentration: 3427.673 pg/mL
  TNF alpha concentration: 955.6923 pg/mL

## Cc1ccc(-c2ccc3c(c2)CCn2c-3cc(OCC3COc4ncccc4O3)nc2=O)cn1 (stereo not shown) [CMPD 139]
[2]; CMPD 139 at 10^−5 M combined with decanoic acid
  Effect on cytokine and growth factor levels compared to agonist alone: reduced all measured cytokine and growth factors
[2]; [6]
  IL-1beta in supernatant: 0.9600 pg/mL
  TNFalpha in supernatant: 1.270 pg/mL
GPR84 [3]; with 6-n-octylaminouracil 1.34 × 10^−7 M
  IC50: 20 nM
GPR84 [3]; with 40 × 10^−6 M 2-OH decanoic acid
  IC50: 16 nM
GPR84 [3]; with embelin 6.00 10^−6 M
  IC50: 9.4 nM
[4]; 3x 30 + 30 mg/kg p.o./s.c.
  Weight distribution (% Ipsi/contra) 2 h post last dose mean +/− SD: 55.82 +/− 17.38 % Ipsi/contra
[4]; 3x 90 + 90 mg/kg p.o./s.c., *p<0.05 vs vehicle
  Weight distribution (% Ipsi/contra) 2 h post last dose mean +/− SD: 60.37 +/− 15.45* % Ipsi/contra
PBMCs; [7]
  IL-1beta concentration: 1933.011 pg/mL
  TNF alpha concentration: 479.6307 pg/mL
PBMCs; LPS-stimulated PBMCs, with 6-n-octylaminouracil
  Effect on GPR84 elevated IL-1beta and TNFalpha levels: reduced GPR84 elevated IL-1beta and TNFalpha levels

## CCCCCCCCCC(=O)O [Decanoic acid, reference compound]
[2]; Decanoic Acid (10 μM) alone
  IL-1beta in supernatant: 1.413 pg/mL
  TNFalpha in supernatant: 1.953 pg/mL
